These results are taken from PubChem BioAssay AID2060624 (Molecular Pharmacology Branch, DTP, NCI, 2025).

The viability, T/C is the result in the treated group divided by that in the control group, in per cent. In general, IC50 refers to the concentration that inhibits the measured activity by half.

“And” between values parts separate entries of the source, which are not always exact repeats. Identical values can stand only once. A value given as a limit tells only on which side of the number the result lay.

This assay concerns 217524-143-R1-J4-PDC spheroids with HUVEC/MSC, viability. The assay can be described thus: Anticancer human tumor 217524-143-R1-J4-PDC patient-derived pancreatic carcinoma cell line growth inhibition [CLK]. The note with it: for viability, T/C: stronger effect = lower value. The text has this: A high-throughput screen of multi-cell type tumor spheroids was designed to identify active combinations of […] and targeted small molecules. Complex spheroids include a stromal component modeled by human endothelial cells (HUVEC) and fibroblasts modeled by human mesenchymal stem cells (MSCs). The concentration ranges selected for each drug and investigational agent were based upon clinically achievable concentrations if the clinical Cmax of the agent was known.
Compounds. The drugs and investigational agents: cirtuvivint (SM08502; NSC835563), CC-671 (NSC850746), vemurafenib (NSC761431), tapotoclax (NSC804041), sotorasib (NSC818433), adagrasib (NSC831453), MRTX-1133 (NSC836407), BAY2416964 (NSC825713), copanlisib (NSC816437), inavolisib (NSC800729), abemaciclib (NSC768073), osimertinib (NSC779217), entinostat (NSC756642), eltanexor (KPT-8602, NSC794443), venetoclax (NSC766270), ceralasertib (NSC777638), bortezomib (NSC756655), olaparib (NSC753686), talazoparib (NSC767125), alisertib (NSC759677), peposertib (NSC802822), gemcitabine (NSC613327), 5-fluorouracil (NSC19893), SN-38 (NSC673596), oxaliplatin (NSC266046), paclitaxel (NSC125973), and doxorubicin (NSC123127), were obtained from the National Cancer Institute (NCI) Developmental Therapeutics Program Chemical Repository. The FDA-approved anticancer drug set is available from the Developmental Therapeutics Program at https://dtp.cancer.gov/organization/dscb/obtaining/available plates.htm. […] The stock solutions were prepared in dimethyl sulfoxide (DMSO, Sigma-Aldrich, St. Louis, MO, cat. D2650), except for the platinum complexes which were prepared in saline (Quality Biological, Gaithersburg, MD, cat. 114-055-101), at 800-fold the tested concentration and stored at -70 degrees C prior to their use. All drugs and investigational agents were tested over a range starting from a high concentration at or near the clinical Cmax and decreasing in half-log increments. If the clinical Cmax for an agent had not been determined, the highest concentration tested was 10 microM.
Cell Culture. All cells were maintained in an incubator at 37 degrees C and 5% CO2 with 95% humidity. The PDC lines were cultured according to standard operating procedures established by the NCI PDMR. Briefly, all PDCs were thawed and cultured in Matrigel-coated flasks prepared with a working solution of 1X Ham's F-12 nutrient mix, without supplementation (Invitrogen, Waltham, MA, cat. 11765054), 100 U/mL penicillin-streptomycin (Invitrogen, cat. 15140122), and 2.5% Matrigel (Corning Inc., Corning, NY, cat. 354248) for the first three passages. The 947758-054-R-J2-PDC line was cultured in 6B/Colon 1A media, which includes advanced DMEM/F-12 (Thermo Fisher Scientific, cat. 12634028), 10 mM HEPES (Thermo Fisher Scientific, cat. 15630080), 1X GlutaMAX supplement (Thermo Fisher Scientific, cat. 35050061), 0.1 mg/mL primocin (InvivoGen, cat. ant-pm-2), 10% defined fetal bovine serum, heat inactivated (HyClone Laboratories Inc., cat. SH30070.03HI), 1.25 mM N-Acetyl-L-cysteine (Sigma-Aldrich, cat. A9165), 10 mM nicotinamide (Sigma-Aldrich, cat. N0636), 1X B-27 supplement (Thermo Fisher Scientific, cat. 17504044), 1X N-2 supplement (Thermo Fisher Scientific, cat. 17502048), and 10 microM Y-27632 dihydrochloride (Tocris Bioscience, cat. 1254). The 876862-298-R-J1-PDC was cultured in 6E media, which includes all 6B/Colon 1A media components plus 50% L-WRN conditioned media (ATCC, cat. CRL-3276), 50 ng/mL recombinant human EGF recombinant protein (hEGF; Thermo Fisher Scientific, cat. PHG0311), 10 ng/mL recombinant human fibroblast growth factor 10 (hGFG-10; PeproTech, cat. 100-26), 1 ng/mL recombinant human fibroblast growth factor 2 (hFGF-2; PeproTech, cat. 100-18B), and 1 µM prostaglandin E2 (PGE2; Tocris, cat. 2296). The 227483-062-R1-J1-PDC line was cultured in Panc media, containing all 6E components except hFGF-2, with the addition of 500 nM SB-431542 (Selleckchem, cat. S1067) and 10 nM gastrin (Tocris, cat. 3006). […]
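Further: spheroids exposed to agents for seven days before reading.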

For `C#Cc1c(F)ccc2cc(O)cc(-c3ncc4c(N5CC6CCC(C5)N6)nc(OCC56CCCN5CC(F)C6)nc4c3F)c12` (configuration not stated), the viability, T/C is, setting by setting: (compound 0.0316 µM) 101% and 98%; (compound 0.1 µM) 81.7% and 90.2%; (compound 0.316 µM) 88.5% and 86.4%; (compound 1 µM) 85% and 85.9%; (compound 3.16 µM) 86.7% and 68%; (compound 10 µM) 59% and 77.1%. Further, the IC50 (curve of compound) was over 10000 nM.
Turning to `C=C(F)C(=O)N1CCN(c2nc(OCC3CCCN3C)nc3c2CCN(c2cccc4cccc(Cl)c24)C3)CC1CC#N` (configuration not stated), the viability, T/C is 91.8% and 102% (compound 0.0316 µM); 113% and 96.7% (compound 0.1 µM); 109% and 106% (compound 0.316 µM); 73.5% and 108% (compound 1 µM); 85.6% and 87.4% (compound 3.16 µM); 3.02% and 4.54% (compound 10 µM). For the same molecule, under “curve of compound”, the IC50 is 4870 nM and 5320 nM.
Consider `C=CC(=O)N1CCN(c2nc(=O)n(-c3c(C)ccnc3C(C)C)c3nc(-c4c(O)cccc4F)c(F)cc23)C(C)C1` (configuration not stated), for which the viability, T/C (compound 0.0316 µM) was 98.7% and 109%; the viability, T/C (compound 0.1 µM) is 72.6% and 98%; the viability, T/C (compound 0.316 µM) was 78.3% and 113%; the viability, T/C (compound 1 µM) is 96.4% and 111%; the viability, T/C (compound 3.16 µM) is 126% and 111%; the viability, T/C (compound 10 µM) is 103%. For the setting “curve of compound”, the concentration for half-maximal inhibition (IC50) is over 10000 nM.
As to `C=CC(=O)Nc1cc(Nc2nccc(-c3cn(C)c4ccccc34)n2)c(OC)cc1N(C)CCN(C)C`, the viability, T/C (compound 0.000949 µM) is 106% and 100%; the viability, T/C (compound 0.003 µM) was 83.4% and 96.4%; the viability, T/C (compound 0.00949 µM) was 100% and 92.1%; the viability, T/C (compound 0.03 µM) was 90.3% and 81.1%; the viability, T/C (compound 0.0949 µM) was 57.1% and 43.5%; the viability, T/C (compound 0.3 µM) was 35.3% and 33.1%. For the same molecule, the IC50 (curve of compound) was 137 nM and 78.7 nM.
As for `CC(C)CC(NC(=O)C(Cc1ccccc1)NC(=O)c1cnccn1)B(O)O` (configuration not stated), the viability, T/C is, setting by setting: (compound 0.000949 µM) 107% and 103%; (compound 0.003 µM) 68% and 61.1%; (compound 0.00949 µM) 27% and 19.8%; (compound 0.03 µM) 10.3% and 6.71%; (compound 0.0949 µM) 6.69% and 3.3%; (compound 0.3 µM) 2.39% and 1.64%. Further, the IC50 (curve of compound) is 4.99 nM and 4.09 nM.
For the molecule `CC(CO)NC(=O)c1cc(-c2ccc(Cl)cc2)nn(-c2cnn(C)c2)c1=O` (configuration not stated), the viability, T/C is 110% and 92.8% (compound 0.0316 µM); 94.5% and 72.6% (compound 0.1 µM); 91.5% and 92.9% (compound 0.316 µM); 89.1% and 89.9% (compound 1 µM); 106% and 95.8% (compound 3.16 µM); 78.1% and 85.5% (compound 10 µM). Moreover, the IC50 (curve of compound) was over 10000 nM.
On to `CC(Nc1ccc2c(c1)OCCn1cc(N3C(=O)OCC3C(F)F)nc1-2)C(N)=O` (configuration not stated), for which the viability, T/C (compound 0.0316 µM) is 77.3% and 57.6%; the viability, T/C (compound 0.1 µM) was 36% and 29.8%; the viability, T/C (compound 0.316 µM) is 16.3% and 11.6%; the viability, T/C (compound 1 µM) is 8.54% and 7.09%; the viability, T/C (compound 3.16 µM) was 6.58% and 6.55%; the viability, T/C (compound 10 µM) was 4.15% and 4.2%. Besides, the IC50 (curve of compound) was 67.6 nM and 43.3 nM.
On to `CCCS(=O)(=O)Nc1ccc(F)c(C(=O)c2c[nH]c3ncc(-c4ccc(Cl)cc4)cc23)c1F`, for which the viability, T/C runs as follows: (compound 0.0316 µM) 111% and 94.5%; (compound 0.1 µM) 110% and 95%; (compound 0.316 µM) 109% and 117%; (compound 1 µM) 138% and 127%; (compound 3.16 µM) 144% and 134%; (compound 10 µM) 59.8% and 57%. Besides, the IC50 (curve of compound) is over 10000 nM.
Regarding `CCN1CCN(Cc2ccc(Nc3ncc(F)c(-c4cc(F)c5nc(C)n(C(C)C)c5c4)n3)nc2)CC1`, the viability, T/C runs as follows: (compound 0.00316 µM) 104% and 92.1%; (compound 0.01 µM) 74.8% and 70.1%; (compound 0.0316 µM) 90.5% and 66.1%; (compound 0.1 µM) 61.9% and 40.7%; (compound 0.316 µM) 40.3% and 33.4%; (compound 1 µM) 44% and 39.1%. The half-inhibitory concentration (IC50) (curve of compound) is 200 nM and 64 nM.
For the molecule `CCc1c2c(nc3ccc(O)cc13)-c1cc3c(c(=O)n1C2)COC(=O)[C@]3(O)CC`, the viability, T/C (compound 0.00316 µM) is 51.5% and 55.3%; the viability, T/C (compound 0.01 µM) is 42% and 40.3%; the viability, T/C (compound 0.0316 µM) was 33.3% and 33.9%; the viability, T/C (compound 0.1 µM) was 26.8% and 28.3%; the viability, T/C (compound 0.316 µM) was 20.4% and 16.5%; the viability, T/C (compound 1 µM) is 5.13% and 2.88%. In addition, for the setting “curve of compound”, the IC50 is 3.31 nM and 4.7 nM.
As to `CNC(=O)c1ccc(Nc2nc(OC3CCCC3)c3c(-c4ccc5nc(C)oc5c4)c[nH]c3n2)c(OC)c1`, the viability, T/C was 91.6% [middle of 12 runs] (compound 0.0316 µM); 46.5% [middle of 12 runs] (compound 0.1 µM); 37.7% [middle of 12 runs] (compound 0.316 µM); 31.2% [middle of 12 runs] (compound 1 µM); 27.4% [middle of 12 runs] (compound 3.16 µM); 27.3% [middle of 12 runs] (compound 10 µM). The IC50 (compound alone, run of 08/01/2023) was 96.4 nM [middle of 12 runs].
Consider `COC1C=CCC(C)C(C)S(=O)(=O)NC(=O)c2ccc3c(c2)N(CC2CCC21)CC1(CCCc2cc(Cl)ccc21)CO3` (configuration not stated), for which the viability, T/C (compound 0.0316 µM) is 93.3% and 85.4%; the viability, T/C (compound 0.1 µM) is 112% and 93.6%; the viability, T/C (compound 0.316 µM) is 112%; the viability, T/C (compound 1 µM) was 123% and 108%; the viability, T/C (compound 3.16 µM) was 125% and 110%; the viability, T/C (compound 10 µM) is 26.2% and 28.4%. Moreover, the IC50 (curve of compound) is 7310 nM and 7140 nM.
Consider `COc1c(OCCCN2CCOCC2)ccc2c3n(c(=NC(=O)c4cnc(N)nc4)nc12)CCN3`, for which the viability, T/C was 74.2% and 71.6% (compound 0.00316 µM); 39.2% and 27.7% (compound 0.01 µM); 16.1% and 11.7% (compound 0.0316 µM); 5% and 4.43% (compound 0.1 µM); 2.63% and 3% (compound 0.316 µM); 2.47% and 2.32% (compound 1 µM). For the same molecule, the IC50 (curve of compound) is 7.04 nM and 5.59 nM.
Take `Cn1ncnc1[C@H]1c2n[nH]c(=O)c3cc(F)cc(c23)N[C@@H]1c1ccc(F)cc1`: the viability, T/C was 101% and 96.4% (compound 0.000316 µM); 93.3% and 90.1% (compound 0.001 µM); 103% and 102% (compound 0.00316 µM); 85.5% and 93.6% (compound 0.01 µM); 113% and 106% (compound 0.0316 µM); 102% and 83.5% (compound 0.1 µM). Also, the IC50 (curve of compound) was over 100 nM.
On to `NC(=O)C(=Cn1cnc(-c2cc(C(F)(F)F)cc(C(F)(F)F)c2)n1)c1cncnc1`, for which the viability, T/C is, setting by setting: (compound 0.00949 µM) 73.8% and 67.8%; (compound 0.03 µM) 49.3% and 36.5%; (compound 0.0949 µM) 27.8% and 21.1%; (compound 0.3 µM) 21.7% and 27.9%; (compound 0.949 µM) 25.6% and 28.4%; (compound 3 µM) 23.2% and 20.4%. Besides, the IC50 (curve of compound) is 29 nM and 18.2 nM.
Consider `Nc1ccccc1NC(=O)c1ccc(CNC(=O)OCc2cccnc2)cc1`, for which the viability, T/C runs as follows: (compound 0.0316 µM) 112% and 117%; (compound 0.1 µM) 102% and 93.9%; (compound 0.316 µM) 97.4% and 104%; (compound 1 µM) 89.9% and 98.1%; (compound 3.16 µM) 61.6% and 70.6%; (compound 10 µM) 31.1% and 34.7%. Further, for the setting “curve of compound”, the IC50 is 5090 nM and 6150 nM.
